Legend:
Assay type in all cases: in vivo
[1] = tested on: pigweed (Amaranthus retroflexus); assay: Test A pre-/postemergence: pigweed; details: for Pigweed plant response rating: Postemergence; for Plant response rating, Pigweed: Preemergence
Outline: (§1)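 Soil medium was loam blended with sand; treatments pre- and postemergence were applied concurrently, postemergence at one- to two-leaf stage. Approximately ten days in greenhouse preceded visual comparison with untreated controls, scored 0 (no effect) to 100 (complete control).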

rice (Oryza sativa) = assay: Test C flooded paddy test: rice; details: scale 0 to 100 (0 no effect, 100 complete control)
From the text: (§2) Plant species in the flooded paddy test consisted of rice (Oryza sativa), sedge, umbrella (small-flower umbrella sedge, Cyperus difformis), ducksalad (Heteranthera limosa) and barnyardgrass (Echinochloa crus-galli) grown to the 2-leaf stage for testing. At time of treatment, test pots were flooded to 3 cm above the soil surface, treated by application of test compounds directly to the paddy water, and then maintained at that water depth for the duration of the test.
(§3) Treated plants and controls were maintained in a greenhouse for 13 to 15 days, after which time all species were compared to controls and visually evaluated. Plant response ratings, summarized in Table C, are based on a scale of 0 to 100 where 0 is no effect and 100 is complete control. A dash (-) response means no test result.

[2] = tested on: foxtail, giant (giant foxtail, Setaria faberii); assay: Test A pre-/postemergence: foxtail, giant; details: for Foxtail, Giant plant response rating: Postemergence; for Plant response rating, Foxtail, Giant: Preemergence
Outline: as §1

[3] = tested on: sedge, umbrella (small-flower umbrella sedge, Cyperus difformis); assay: Test C flooded paddy test: sedge, umbrella; details: scale 0 to 100 (0 no effect, 100 complete control)
Outline: (§4)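 Plants at 2-leaf stage in pots flooded 3 cm above soil; compounds applied directly into the paddy water, depth maintained. Visual rating against controls after 13–15 days in greenhouse, scale 0 (no effect) to 100 (complete control).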

corn (Zea mays) = assay: Test A pre-/postemergence: corn; details: for Corn plant response rating: Postemergence; for Plant response rating, Corn: Preemergence
Outline: as §1

[4] = tested on: barnyardgrass (Echinochloa crus-galli); assay: Test C flooded paddy test: barnyardgrass; details: scale 0 to 100 (0 no effect, 100 complete control)
Outline: as §4

[5] = tested on: wheat (Triticum aestivum); assay: Test A pre-/postemergence: wheat; details: for Wheat plant response rating: Postemergence; for Plant response rating, Wheat: Preemergence
Outline: as §1

[6] = tested on: crabgrass, large (large crabgrass, Digitaria sanguinalis); assay: Test A pre-/postemergence: crabgrass, large; details: for Crabgrass, Large plant response rating: Postemergence; for Plant response rating, Crabgrass, Large: Preemergence
Outline: as §1

[7] = tested on: barnyardgrass (Echinochloa crus-galli); assay: Test A pre-/postemergence: barnyardgrass; details: for Barnyardgrass plant response rating: Postemergence; for Plant response rating, Barnyardgrass: Preemergence
Outline: as §1

[8] = tested on: velvetleaf (Abutilon theophrasti); assay: Test A pre-/postemergence: velvetleaf; details: for Velvetleaf plant response rating: Postemergence; for Plant response rating, Velvetleaf: Preemergence
Outline: as §1

[9] = tested on: ducksalad (Heteranthera limosa); assay: Test C flooded paddy test: ducksalad; details: scale 0 to 100 (0 no effect, 100 complete control)
From the text: as §2, §3

[10] = tested on: morningglory (Ipomoea spp.); assay: Test A pre-/postemergence: morningglory; details: for Morningglory plant response rating: Postemergence; for Plant response rating, Morningglory: Preemergence
Outline: as §1

[11] = 125 g ai/ha, 0 to 100 scale, 0 is no effect, 100 is complete control
[12] = 500 g ai/ha, visual rating on 0 to 100 scale (0 no effect, 100 complete control), approximately ten days
[13] = 125 g ai/ha, 0 to 100 scale (0 no effect, 100 complete control)
[14] = 500 g ai/ha, 0 to 100 scale, 0 is no effect, 100 is complete control
[15] = Flood (flooded paddy test), 62 g ai/ha, visual rating after 13 to 15 days
[16] = Flood (flooded paddy test), 125 g ai/ha, visual rating after 13 to 15 days
[17] = Flood (flooded paddy test), 250 g ai/ha, visual rating after 13 to 15 days

## COc1nn(-c2ccc(C(F)(F)F)cc2)nc1Cn1cnc(C(F)(F)F)n1 [Compound 18]
[1]; [11]
  Pigweed plant response rating: 100
[1]; [12]
  Pigweed plant response rating: 100
[1]; [13]
  Plant response rating, Pigweed: 80
[1]; [14]
  Plant response rating, Pigweed: 100
Rice (Oryza sativa); [15]
  Plant response rating, Rice: 0
Rice (Oryza sativa); [16]
  Plant response rating, Rice: 0
Rice (Oryza sativa); [17]
  Plant response rating, Rice: 0
Rice (Oryza sativa); Flood, 31 g ai/ha
  Plant response rating, Rice: 0
[2]; [11]
  Foxtail, Giant plant response rating: 30
[2]; [12]
  Foxtail, Giant plant response rating: 70
[2]; [13]
  Plant response rating, Foxtail, Giant: 80
[2]; [14]
  Plant response rating, Foxtail, Giant: 90
[3]; [15]
  Plant response rating, Sedge, Umbrella: 0
[3]; [16]
  Plant response rating, Sedge, Umbrella: 40
[3]; [17]
  Plant response rating, Sedge, Umbrella: 65
[3]; Flood, 31 g ai/ha
  Plant response rating, Sedge, Umbrella: 0
Corn (Zea mays); [11]
  Corn plant response rating: 20
Corn (Zea mays); [12]
  Corn plant response rating: 30
Corn (Zea mays); [13]
  Plant response rating, Corn: 0
Corn (Zea mays); [14]
  Plant response rating, Corn: 0
[4]; [15]
  Plant response rating, Barnyardgrass: 0
[4]; [16]
  Plant response rating, Barnyardgrass: 0
[4]; [17]
  Plant response rating, Barnyardgrass: 0
[4]; Flood, 31 g ai/ha
  Plant response rating, Barnyardgrass: 0
[5]; [11]
  Wheat plant response rating: 20
[5]; [12]
  Wheat plant response rating: 30
[5]; [13]
  Plant response rating, Wheat: 0
[5]; [14]
  Plant response rating, Wheat: 0
[6]; [11]
  Crabgrass, Large plant response rating: 60
[6]; [12]
  Crabgrass, Large plant response rating: 80
[6]; [13]
  Plant response rating, Crabgrass, Large: 90
[6]; [14]
  Plant response rating, Crabgrass, Large: 90
[7]; [11]
  Barnyardgrass plant response rating: 50
[7]; [12]
  Barnyardgrass plant response rating: 60
[7]; [13]
  Plant response rating, Barnyardgrass: 20
[7]; [14]
  Plant response rating, Barnyardgrass: 30
[8]; [11]
  Velvetleaf plant response rating: 70
[8]; [12]
  Velvetleaf plant response rating: 80
[8]; [13]
  Plant response rating, Velvetleaf: 20
[8]; [14]
  Plant response rating, Velvetleaf: 30
[9]; [15]
  Plant response rating, Ducksalad: 0
[9]; [16]
  Plant response rating, Ducksalad: 0
[9]; [17]
  Plant response rating, Ducksalad: 0
[9]; Flood, 31 g ai/ha
  Plant response rating, Ducksalad: 0
[10]; [11]
  Morningglory plant response rating: 80
[10]; [12]
  Morningglory plant response rating: 90
[10]; [13]
  Plant response rating, Morningglory: 10
[10]; [14]
  Plant response rating, Morningglory: 50

## Cc1nn(-c2ccc(F)cc2)nc1Cn1c(Cl)nc(C(F)(F)F)c1Cl [Compound 20]
[1]; [11]
  Pigweed plant response rating: 0
[1]; [12]
  Pigweed plant response rating: 30
[1]; [13]
  Plant response rating, Pigweed: 0
[1]; [14]
  Plant response rating, Pigweed: 0
Rice (Oryza sativa); [15]
  Plant response rating, Rice: 0
Rice (Oryza sativa); [16]
  Plant response rating, Rice: 0
Rice (Oryza sativa); [17]
  Plant response rating, Rice: 0
Rice (Oryza sativa); Flood, 31 g ai/ha
  Plant response rating, Rice: 0
[2]; [11]
  Foxtail, Giant plant response rating: 0
[2]; [12]
  Foxtail, Giant plant response rating: 10
[2]; [13]
  Plant response rating, Foxtail, Giant: 0
[2]; [14]
  Plant response rating, Foxtail, Giant: 0
[3]; [15]
  Plant response rating, Sedge, Umbrella: 0
[3]; [16]
  Plant response rating, Sedge, Umbrella: 0
[3]; [17]
  Plant response rating, Sedge, Umbrella: 0
[3]; Flood, 31 g ai/ha
  Plant response rating, Sedge, Umbrella: 0
Corn (Zea mays); [11]
  Corn plant response rating: 0
Corn (Zea mays); [12]
  Corn plant response rating: 10
Corn (Zea mays); [13]
  Plant response rating, Corn: 0
Corn (Zea mays); [14]
  Plant response rating, Corn: 0
[4]; [15]
  Plant response rating, Barnyardgrass: 0
[4]; [16]
  Plant response rating, Barnyardgrass: 0
[4]; [17]
  Plant response rating, Barnyardgrass: 0
[4]; Flood, 31 g ai/ha
  Plant response rating, Barnyardgrass: 0
[5]; [11]
  Wheat plant response rating: 0
[5]; [12]
  Wheat plant response rating: 0
[5]; [13]
  Plant response rating, Wheat: 0
[5]; [14]
  Plant response rating, Wheat: 0
[6]; [11]
  Crabgrass, Large plant response rating: 0
[6]; [12]
  Crabgrass, Large plant response rating: 10
[6]; [13]
  Plant response rating, Crabgrass, Large: 0
[6]; [14]
  Plant response rating, Crabgrass, Large: 0
[7]; [11]
  Barnyardgrass plant response rating: 0
[7]; [12]
  Barnyardgrass plant response rating: 0
[7]; [13]
  Plant response rating, Barnyardgrass: 0
[7]; [14]
  Plant response rating, Barnyardgrass: 0
[8]; [11]
  Velvetleaf plant response rating: 0
[8]; [12]
  Velvetleaf plant response rating: 20
[8]; [13]
  Plant response rating, Velvetleaf: 0
[8]; [14]
  Plant response rating, Velvetleaf: 0
[9]; [15]
  Plant response rating, Ducksalad: 0
[9]; [16]
  Plant response rating, Ducksalad: 0
[9]; [17]
  Plant response rating, Ducksalad: 0
[9]; Flood, 31 g ai/ha
  Plant response rating, Ducksalad: 0
[10]; [11]
  Morningglory plant response rating: 0
[10]; [12]
  Morningglory plant response rating: 10
[10]; [13]
  Plant response rating, Morningglory: 0
[10]; [14]
  Plant response rating, Morningglory: 0
